In article PMC7567334 (Environmental Health Perspectives, 2020):
“Also recorded” adds a separate entry of the source. Like-named read-outs stand apart in the source and are kept apart here.

What was measured:
recombinant AR = details: ref Chen et al. 2008; cited from earlier work
AR-EcoScreen cells = experiment: Cell viability (resazurin) in AR-EcoScreen cells; details: agonist assay
Androgen receptor = details: cited from earlier work
GR [1] = target: T1, GR (Homo sapiens, UniProt P04150); experiment: MDA-kb2 GR reporter assay, antagonist setup (500 nM HC); format: cell-based; design: constitutively expressed high levels of functional GR and AR; host or cells: MDA-kb2
T1 sequence (P04150 1-777): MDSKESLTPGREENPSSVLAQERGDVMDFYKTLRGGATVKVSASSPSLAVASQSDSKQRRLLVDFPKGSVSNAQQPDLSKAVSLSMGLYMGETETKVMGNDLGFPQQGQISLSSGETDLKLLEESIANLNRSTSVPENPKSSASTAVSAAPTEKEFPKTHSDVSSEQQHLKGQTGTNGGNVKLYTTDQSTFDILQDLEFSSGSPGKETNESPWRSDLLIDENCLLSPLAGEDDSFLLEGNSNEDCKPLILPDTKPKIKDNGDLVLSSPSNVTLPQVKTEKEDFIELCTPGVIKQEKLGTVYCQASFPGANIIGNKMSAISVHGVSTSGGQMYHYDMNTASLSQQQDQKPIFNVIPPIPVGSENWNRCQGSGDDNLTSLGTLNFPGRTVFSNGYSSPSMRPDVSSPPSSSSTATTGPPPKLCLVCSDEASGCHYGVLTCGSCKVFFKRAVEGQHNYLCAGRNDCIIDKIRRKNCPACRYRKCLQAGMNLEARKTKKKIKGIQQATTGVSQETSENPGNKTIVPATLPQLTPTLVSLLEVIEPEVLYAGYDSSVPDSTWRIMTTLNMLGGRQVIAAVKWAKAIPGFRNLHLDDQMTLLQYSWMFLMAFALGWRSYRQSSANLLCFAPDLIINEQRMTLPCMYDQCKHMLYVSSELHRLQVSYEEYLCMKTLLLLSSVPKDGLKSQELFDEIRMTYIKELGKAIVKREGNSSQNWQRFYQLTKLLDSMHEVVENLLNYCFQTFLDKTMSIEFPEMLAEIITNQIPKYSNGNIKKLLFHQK

Estrogen receptor-α = details: cited from earlier work
GR [2] = target: T1, GR; experiment: PolarScreen GR Competitor binding affinity assay; design: purchased Invitrogen; details: in words; tested up to 10 μM
human (h)AR = target: T2, human (h)AR (Homo sapiens, UniProt P10275); experiment: AR-EcoScreen hAR transcriptional activation assay, antagonist setup (500 pM DHT); format: cell-based; details: vs 0.1% DMSO with 500 pM DHT
T2 sequence (P10275 1-920): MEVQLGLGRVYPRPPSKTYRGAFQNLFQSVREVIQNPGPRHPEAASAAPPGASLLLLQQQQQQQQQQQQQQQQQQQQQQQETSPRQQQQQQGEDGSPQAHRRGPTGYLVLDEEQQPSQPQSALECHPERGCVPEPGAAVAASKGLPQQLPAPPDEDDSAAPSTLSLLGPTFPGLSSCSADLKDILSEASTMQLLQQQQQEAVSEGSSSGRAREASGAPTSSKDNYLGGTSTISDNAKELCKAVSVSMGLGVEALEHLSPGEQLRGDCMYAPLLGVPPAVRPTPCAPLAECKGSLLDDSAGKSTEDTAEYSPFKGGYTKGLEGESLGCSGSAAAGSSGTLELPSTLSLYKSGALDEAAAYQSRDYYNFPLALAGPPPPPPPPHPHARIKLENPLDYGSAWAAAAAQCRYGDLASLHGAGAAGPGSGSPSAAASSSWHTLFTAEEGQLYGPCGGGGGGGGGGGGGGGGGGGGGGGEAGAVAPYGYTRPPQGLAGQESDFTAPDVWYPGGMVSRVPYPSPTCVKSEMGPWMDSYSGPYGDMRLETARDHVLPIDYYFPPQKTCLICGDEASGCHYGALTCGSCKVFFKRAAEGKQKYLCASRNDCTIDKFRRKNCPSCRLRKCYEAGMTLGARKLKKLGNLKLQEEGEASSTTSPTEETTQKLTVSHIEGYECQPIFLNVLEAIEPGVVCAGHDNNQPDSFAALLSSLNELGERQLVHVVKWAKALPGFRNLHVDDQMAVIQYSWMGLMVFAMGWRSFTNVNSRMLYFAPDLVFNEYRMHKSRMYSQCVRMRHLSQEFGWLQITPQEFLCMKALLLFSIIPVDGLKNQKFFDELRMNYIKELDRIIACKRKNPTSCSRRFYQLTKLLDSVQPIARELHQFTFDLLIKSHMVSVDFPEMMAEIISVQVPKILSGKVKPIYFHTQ

TRα and TRβ = experiment: GH3.TRE-Luc TR reporter assay, agonist setup; format: cell-based, rat; details: 1 μM; vs 0.1% DMSO
[3] = BG1-ERE cells, ref Ahn et al. 2008

O=C(Nc1ccc(Cl)cc1)Nc1ccc(Cl)c(Cl)c1 [Triclocarban, 1-(4-Chlorophenyl)-3-(3,4-dichlorophenyl) urea]
binding to recombinant AR (recombinant AR): Negative for recombinant AR ([Chen et al. 2008])
highest noncytotoxic concentration (AR-EcoScreen cells): 2.5 µM
effect on AR (Androgen receptor; HEK-2933Y cells, ref Ahn et al. 2008, Chen et al. 2008): Enhancer of testosterone activity in HEK-2933Y cells ([Ahn et al. 2008]; [Chen et al. 2008])
effect on AR (Androgen receptor; MDA-kb2 cells, ref Christen et al. 2010, Kolšek et al. 2014a, Tarnow et al. 2013): Enhancer of 5α-dihydrotestosterone activity in MDA-kb2 cells ([Christen et al. 2010]; [Kolšek et al. 2014a]; [Tarnow et al. 2013])
effect on AR (Androgen receptor; T47D-ARE cells, ref Ahn et al. 2008): Enhancer of testosterone activity in T47D-ARE cells ([Ahn et al. 2008])
lower GR RTA than spike-in control (GR [1]; 5 μM, vs 0.1% DMSO with 500 nM HC): 38.9%
GR antagonist activity, call (GR [1]; MDA-kb2): Antagonist
concentration with GR antagonist activity (GR [1]; MDA-kb2): 5 µM
effect on ER with β-estradiol (Estrogen receptor-α; [3]): Enhancer of β-estradiol activity in BG1-ERE cells ([Ahn et al. 2008])
effect on ER, compound alone (Estrogen receptor-α; [3]): Agonist in BG1-ERE cells ([Ahn et al. 2008])
effect on ERα (Estrogen receptor-α; hERα-HeLa-9903 cells, ref Tarnow et al. 2013): Enhancer of β-estradiol activity in hERα-HeLa-9903 cells ([Tarnow et al. 2013])
binding affinity assay on isolated GR, result (GR [2]): did not show binding; also recorded: negative
higher AR RTA than spike-in control (human (h)AR; 1 μM): 30.7%
higher AR RTA than spike-in control (human (h)AR; 2.5 μM): 39.4%
baseline TR-mediated transcriptional activity lower than vehicle control (agonist setup) (TRα and TRβ): > 50%
